What was measured:
Format in all cases: cell-based, Human
[1] = tested on: GR target genes GILZ, PER1, KLF9, SGK1; assay: RT-qPCR of GR target genes after time-dependent AR degrader treatment; details: LNCaP and CWR22PC cells; 100 nM degrader; 30 nM dexamethasone; 0, 6, 10, 13, 15 days
Protocol: (§1) Adherent cells or cell pellets harvested for mRNA analysis were first washed once with PBS and then resuspended in 600 µL of RLT lysis buffer (Qiagen Inc.) supplemented with 1% of betamercaptoethanol. RNA was extracted by QIAcube using the RNeasy Mini QIAcube kit (Qiagen#74116) according to manufacturer’s instructions. The extracted RNA samples were then quantified using a Nanodrop 8000 Spectrophotometer. RT-qPCR reactions were set up in triplicate using 3 µL of 3 ng/ µL of RNA in 7 µL of pre-mixed SensiFAST™ SYBR No-ROX One-Step Kit reagents (BIOLINE# BIO-98005). The RT-qPCR reactions were run on a Bio-Rad CFX384 Real-Time PCR System and data was plotted with GraphPad Prism 8 software.

[2] = tested on: GR protein; assay: Western blot of GR protein after dose-dependent or time-dependent AR degrader treatment; details: LNCaP and CWR22PC cells, 3 days, increasing doses 3-1000 nM
Protocol: LNCaP and CWR22PC cells were plated in seven 15-cm dishes (Corning#353025) at a density of 5 million cells per dish in RPMI-1640 media supplemented with 10% charcoal-stripped serum (CSS; OmegaScientific#FB4). After 24 hours, the cells were treated with 0, 3, 10, 30, 100, 300 and 1000 nM of ARD1 or ARD2 and incubated at 37° C. for 3 days. The cells were then trypsinized (Corning#25-053-CI) and harvested for transcript (RT-qPCR) and protein (western blot) analysis.
5 million of LNCaP and CWR22PC cells per dish were plated in five 15-cm dishes in 20 mL of RPMI-1640 media supplemented with 10% charcoal-stripped serum (CSS) and cultured at 37° C. for 24 hours. Cells were treated with 30 nM of dexamethasone and with 100 nM of ARD1 or ARD2 and maintained at 37° C. until harvest. On Day 0, 6, 10, 13, and 15, cells were trypsinized, cell pellets were washed with 1XPBS and then divided for mRNA and protein preparation.
Cell pellets were washed with PBS and lysed in RIPA buffer (VWR#AAJ63306-AK) supplemented with […] (VWR #AAJ65789-LQ). Resuspended cells were briefly sonicated for ~30 seconds using a probe sonicator and incubated on ice for 40 minutes, followed with centrifugation at 12,000 rpm for 15 minutes at 4° C. to collect the supernatant. Protein concentration was quantitated using Quick Start™ Bradford Protein Assay Kit (Bio-Rad #5000201). […]

[3] = tested on: AR and GR target genes in CWR22PC cells; assay: End of study (EOS) biomarker analysis by RT-qPCR; details: CSS media, day 21 EOS, 0.1 nM R1881 + 1 µM ARV-110, + 30 nM dexamethasone, + 0.5 µM compound 1
Protocol: CWR22PC cells were seeded at a density of 2 × 10^5 cells/well in 6-well plates (Corning# 3516) in 2 mL of RPMI-1640 media supplemented with 10% charcoal-stripped serum (CSS) in duplicate. 24 hours later, cells were treated with 100 pM R1881, 30 nM dexamethasone, 0.5 µM compound 1, 1 µM of ARD1 or ARD2, or combinations thereof as indicated. Fresh media containing the indicated treatment was replaced every 5-7 days. Cell supernatant was collected on Day 12 and 19 and stored at -80° C. for PSA AlphaLISA assay. Cell images were taken on Day 12 and 19 using Leica DMi8 microscope (LEICA MICROSYSTEMS, INC. IL) with a 10X magnification. Cells were then trypsinized and cell numbers in each treatment group were counted three times, average counts were plotted with GraphPad Prism 8. Cell pellets were washed once with 1XPBS and then lysed in 600 µL RLT RNA lysis buffer and stored at -80° C. RNA was extracted for end of study (EOS) biomarker analysis for which the detailed procedures are described in the section RNA Extraction and RT-qPCR analysis.
as §1
CWR22PC cells were seeded at a density of 2 × 10^5 cells/well in 6-well plates (Corning# 3516) in 2 mL of RPMI-1640 media supplemented with 10% charcoal-stripped serum (CSS) in duplicate. […] Cells were then trypsinized and cell numbers in each treatment group were counted three times, average counts were plotted with GraphPad Prism 8. […]

[4] = tested on: PSA; assay: PSA AlphaLISA assay of cell supernatant (PSA secretion); details: CWR22PC; CSS media; 21 days; 0.1 nM R1881 + 1 µM ARV-110, + 30 nM dexamethasone, + 0.5 µM compound 1

N#Cc1ccc(O[C@H]2CC[C@H](NC(=O)c3ccc(N4CCC(CN5CCN(c6cc7c(cc6F)C(=O)N(C6CCC(=O)NC6=O)C7=O)CC5)CC4)nn3)CC2)cc1Cl (stereo partly drawn) [ARV-110, N-[trans-4-(3-chloro-4-cyanophenoxy)cyclohexyl]-6-[4-[[4-[2-(2,6-dioxo-3-piperidinyl)-6-fluoro-2,3-dihydro-1,3-dioxo-1H-isoindol-5-yl]-1-piperazinyl]methyl]-1-piperidinyl]-3-pyridazinecarboxamide]
expression of GR target genes including GILZ, PER1, KLF9, and SGK1 [1]: most of the GR target genes are upregulated in a time dependent manner
GR protein levels [2]: minimally impacting
R1881-induced target gene (biomarker) expression [3]: blunts
R1881-induced PSA secretion [4]: blunts
